Reference: ChEMBL document CHEMBL1131240, “Novel benzothiazolin-2-one and benzoxazin-3-one arylpiperazine derivatives with mixed 5HT1A/D2 affinity as potential atypical antipsychotics” (J Med Chem, 1998)

Tests used:
[1] = target: 5-hydroxytryptamine receptor 1B (Rattus norvegicus, UniProt P28564); test: Affinity towards 5-hydroxytryptamine 1B receptor in membranes from rat frontal cortex using [3H]5-HT; format: tissue-based
[2] = target: 5-hydroxytryptamine receptor 2A (Bos taurus, UniProt Q75Z89); test: Affinity towards 5-hydroxytryptamine 2A receptor in membranes from bovine frontal cortex using [3H]ketanserin; format: tissue-based
Chain of 5-hydroxytryptamine receptor 2A (Q75Z89 whole entry): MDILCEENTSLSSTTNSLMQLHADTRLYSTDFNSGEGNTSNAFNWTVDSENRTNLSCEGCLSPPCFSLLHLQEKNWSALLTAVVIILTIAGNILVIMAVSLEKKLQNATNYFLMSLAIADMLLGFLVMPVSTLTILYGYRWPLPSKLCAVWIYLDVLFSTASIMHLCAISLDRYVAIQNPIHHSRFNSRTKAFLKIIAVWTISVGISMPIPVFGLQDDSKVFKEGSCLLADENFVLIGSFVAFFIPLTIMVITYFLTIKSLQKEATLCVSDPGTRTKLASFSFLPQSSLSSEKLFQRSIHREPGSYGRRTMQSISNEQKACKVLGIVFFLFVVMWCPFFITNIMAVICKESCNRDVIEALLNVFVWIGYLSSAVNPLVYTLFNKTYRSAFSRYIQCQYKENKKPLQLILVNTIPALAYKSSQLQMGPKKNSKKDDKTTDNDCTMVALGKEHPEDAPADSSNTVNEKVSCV

[3] = target: T1, Alpha-1A adrenergic receptor (Bos taurus, UniProt P18130); test: Affinity towards Alpha-1A adrenergic receptor in membranes from bovine frontal cortex using [3H]prazosin; format: tissue-based
T1 sequence (P18130 whole entry): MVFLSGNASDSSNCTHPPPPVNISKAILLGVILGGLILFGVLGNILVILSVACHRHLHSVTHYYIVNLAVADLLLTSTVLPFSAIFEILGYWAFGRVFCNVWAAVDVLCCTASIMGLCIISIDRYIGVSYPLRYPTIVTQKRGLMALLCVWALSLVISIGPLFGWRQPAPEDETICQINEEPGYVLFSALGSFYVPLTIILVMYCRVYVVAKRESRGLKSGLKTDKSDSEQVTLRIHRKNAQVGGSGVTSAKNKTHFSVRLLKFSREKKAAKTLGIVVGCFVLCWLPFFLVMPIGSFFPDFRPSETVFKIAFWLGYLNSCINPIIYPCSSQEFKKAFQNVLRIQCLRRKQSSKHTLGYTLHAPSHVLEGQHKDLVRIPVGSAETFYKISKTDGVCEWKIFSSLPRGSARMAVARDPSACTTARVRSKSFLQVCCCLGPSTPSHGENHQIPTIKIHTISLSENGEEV

Mus musculus [4] = test: Tail suspension test in mice, dose(mg/Kg ip) = 4;duration of immobility(% vs controls); format: functional
Mus musculus [5] = test: Compound was evaluated in vivo antagonism of mescaline-induced scratching(% vs controls), dose(mg/Kg ip)=4; format: functional
Mus musculus [6] = test: Compound was evaluated in vivo antagonism of mescaline-induced scratching(% vs controls), dose(mg/Kg ip)=0.25; format: functional
Mus musculus [7] = test: Compound was evaluated in vivo antagonism of mescaline-induced scratching(% vs controls), dose(mg/Kg ip)=1; format: functional
Rattus norvegicus [8] = test: Antagonism of SKF 10047 -induced hypermotility (% vs controls) dose(mg/Kg po) = 8; format: functional
Rattus norvegicus [9] = test: Antagonism of PCP-induced stereotypies (%vs controls), dose(mg/Kg po) = 0.5; format: functional
Rattus norvegicus [10] = test: Antagonism of PCP-induced stereotypies (%vs controls), dose(mg/Kg po) = 2; format: functional
Rattus norvegicus [11] = test: Antagonism of PCP-induced stereotypies (%vs controls), dose(mg/Kg po) = 8; format: functional
Rattus norvegicus [12] = test: Antagonism of SKF 10047 -induced hypermotility (% vs controls) dose(mg/Kg po) = 0.5; format: functional
Rattus norvegicus [13] = test: effects on Sidman Avoidance performance in rats, number of escape failure (absolute change from control), p<0.01, dose(mg/Kg po) =32; format: functional
Rattus norvegicus [14] = test: effects on Sidman Avoidance performance in rats, number of escape failure (absolute change from control),n=10 animals per group, dose(mg/Kg po) =16; format: functional
Rattus norvegicus [15] = test: effects on Sidman Avoidance performance in rats, number of shocks (absolute change from control), p<0.001, dose(mg/Kg po) =32; format: functional
Rattus norvegicus [16] = test: effects on Sidman Avoidance performance in rats, number of shocks (absolute change from control),n=10 animals per group, dose(mg/Kg po) =16; format: functional
Rattus norvegicus [17] = test: effects on Sidman Avoidance performance in rats, number of escape failure (absolute change from control), dose(mg/Kg po) =8; format: functional
Rattus norvegicus [18] = test: effects on Sidman Avoidance performance in rats, number of Avoidance performance(% change from control) p<0.001 dose(mg/Kg po) =32; format: functional
Rattus norvegicus [19] = test: effects on Sidman Avoidance performance in rats, number of Avoidance performance(% change from control), p<0.01,dose(mg/Kg po) =16; format: functional
Rattus norvegicus [20] = test: Effects on Sidman Avoidance performance in rats, number of Avoidance performance (% change from control), dose (mg/Kg po) = 8; format: functional
Rattus norvegicus [21] = test: Effects on Sidman Avoidance performance in rats, number of shocks (absolute change from control), dose (mg/Kg po) =8; format: functional
Mus musculus [22] = test: Compound was evaluated in vivo antagonism of mescaline-induced scratching(% vs controls), dose(mg/Kg ip)=2; format: functional
Mus musculus [23] = test: Compound was evaluated in vivo antagonism of mescaline-induced scratching(% vs controls), dose(mg/Kg ip)=1, p<0.05
Mus musculus [24] = test: Compound was evaluated in vivo antagonism of mescaline-induced scratching(% vs controls), dose(mg/Kg ip)=4, p<0.001; format: functional
Mus musculus [25] = test: Compound was evaluated in vivo antagonism of mescaline-induced scratching(% vs controls), dose(mg/Kg ip)=2, ns
Mus musculus [26] = test: Compound was evaluated in vivo antagonism of mescaline-induced scratching(% vs controls), dose(mg/Kg ip)=8, p<0.001; format: functional
Rattus norvegicus [27] = test: effects on Sidman Avoidance performance in rats, number of shocks (absolute change from control), p<0.001, dose(mg/Kg po) =1; format: functional
Rattus norvegicus [28] = test: effects on Sidman Avoidance performance in rats, number of escape failure (absolute change from control), p<0.01, dose(mg/Kg po) =1; format: functional
Rattus norvegicus [29] = test: Antagonism of SKF 10047 -induced hypermotility (% vs controls) dose(mg/Kg po) = 1

Chain of 5-hydroxytryptamine receptor 1B (P28564 whole entry): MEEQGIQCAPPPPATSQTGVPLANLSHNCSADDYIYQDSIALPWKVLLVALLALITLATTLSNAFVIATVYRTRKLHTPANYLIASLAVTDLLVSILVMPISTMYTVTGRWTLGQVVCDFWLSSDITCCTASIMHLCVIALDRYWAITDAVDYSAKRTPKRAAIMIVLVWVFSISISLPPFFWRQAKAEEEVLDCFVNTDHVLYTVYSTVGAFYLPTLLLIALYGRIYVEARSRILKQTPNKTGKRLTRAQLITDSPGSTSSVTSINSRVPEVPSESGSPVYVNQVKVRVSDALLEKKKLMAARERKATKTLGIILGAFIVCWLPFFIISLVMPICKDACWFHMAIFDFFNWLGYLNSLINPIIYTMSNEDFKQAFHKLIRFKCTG

| SMILES | IC50 [1] | IC50 [2] | IC50 [3] | Duration of immobility (Mus musculus [4]) | further results |
| --- | --- | --- | --- | --- | --- |
| COc1ccccc1N1CCN(CCCc2ccc3nc(O)sc3c2)CC1 | 0.061 µM | 0.29 µM | 0.001 µM | 99 | Activity (Mus musculus [5]): 96 |
| COc1ccccc1N1CCN(CCc2ccc3c(c2)sc(=O)n3C)CC1 | 0.3 µM | 0.5 µM | 0.01 µM | 89 | Activity (Mus musculus [6]): 92; Activity (Mus musculus [7]): 100; Hypermotility (Rattus norvegicus [8]): 71; Hypermotility (Rattus norvegicus [9]): 12; Hypermotility (Rattus norvegicus [10]): 2; Hypermotility (Rattus norvegicus [11]): 21; Hypermotility (Rattus norvegicus [12]): 39; No. of escape failure (Rattus norvegicus [13]): 63.6; No. of escape failure (Rattus norvegicus [14]): 18.5; No. of shocks (Rattus norvegicus [15]): 87.8; No. of shocks (Rattus norvegicus [16]): 23.8; No. of escape failure (Rattus norvegicus [17]): 5.8; No. of avoidance (Rattus norvegicus [18]): 78; No. of avoidance (Rattus norvegicus [19]): 38; No. of avoidance (Rattus norvegicus [20]): 12; No. of shocks (Rattus norvegicus [21]): 7.3 |
| COc1ccccc1N1CCN(CCCCc2ccc3c(c2)OCC(=O)N3C)CC1 | – | 0.84 µM | 0.02 µM | 124 | Activity (Mus musculus [23]): 81 |
| CN1C(=O)COc2cc(CCN3CCN(c4cccc(C(F)(F)F)c4)CC3)ccc21 | 0.46 µM | 0.62 µM | 0.085 µM | – | – |
| Cn1c(=O)sc2cc(CCN3CCN(c4ccc(F)cc4)CC3)ccc21 | 3 µM | 0.2 µM | 0.03 µM | – | – |
| Cn1c(=O)sc2cc(CCN3CCN(c4ccccc4O)CC3)ccc21 | 0.031 µM | 1.1 µM | – | – | – |
| COc1ccccc1N1CCN(CCc2ccc3nc(O)sc3c2)CC1 | 0.02 µM | 0.3 µM | 0.0006 µM | – | – |
| Cn1c(=O)sc2cc(CCCCN3CCN(c4cccc(C(F)(F)F)c4)CC3)ccc21 | 1 µM | 0.4 µM | 0.2 µM | – | – |
| COc1ccccc1N1CCN(CCCCc2ccc3c(c2)sc(=O)n3C)CC1 | 0.3 µM | 1 µM | 0.03 µM | 36 | – |
| Oc1nc2ccc(CCN3CCN(c4ccccc4O)CC3)cc2s1 | 0.26 µM | 0.53 µM | – | 92 | Activity (Mus musculus [24]): 97; Activity (Mus musculus [25]): 71 |
| Cn1c(=O)sc2cc(CCN3CCN(c4ccccc4)CC3)ccc21 | 0.2 µM | 0.07 µM | > 0.1 µM | – | – |
| CN1C(=O)COc2cc(CCCCN3CCN(c4cccc(C(F)(F)F)c4)CC3)ccc21 | 0.28 µM | 0.62 µM | 0.03 µM | – | Activity (Mus musculus [26]): 87; Activity (Mus musculus [25]): 60 |
| CN1CCN(C2=Nc3cc(Cl)ccc3Nc3ccccc32)CC1 [CLOZAPINE] | – | – | – | 90 | Activity (Mus musculus [24]): 99; No. of escape failure (Rattus norvegicus [13]): 53.8; No. of shocks (Rattus norvegicus [15]): 71.1 |
| O=C(CCCN1CCC(O)(c2ccc(Cl)cc2)CC1)c1ccc(F)cc1 [HALOPERIDOL] | – | – | – | 65 | No. of shocks (Rattus norvegicus [27]): 99.7; No. of escape failure (Rattus norvegicus [28]): 84.6; Hypermotility (Rattus norvegicus [29]): 94 |

More lines, main results first:

| IC50 [1] | IC50 [2] | IC50 [3] | SMILES | Duration of immobility (Mus musculus [4]) | further results |
| --- | --- | --- | --- | --- | --- |
| 0.36 µM | 0.91 µM | 0.006 µM | COc1ccccc1N1CCN(CCCc2ccc3c(c2)sc(=O)n3C)CC1 | – | Activity (Mus musculus [22]): 73 |
| 0.18 µM | 0.6 µM | 0.0005 µM | COc1ccccc1N1CCN(CCc2ccc3c(c2)OCC(=O)N3C)CC1 | – | – |
| 0.07 µM | 0.6 µM | 0.4 µM | Cn1c(=O)sc2cc(CCN3CCN(c4cccc(C(F)(F)F)c4)CC3)ccc21 | – | – |
| 0.3 µM | 0.04 µM | – | Oc1nc2ccc(CCN3CCN(c4ccccc4)CC3)cc2s1 | – | – |
| 0.6 µM | 0.2 µM | 0.09 µM | O=c1[nH]c2ccc(CCN3CCN(c4cccc(C(F)(F)F)c4)CC3)cc2s1 | – | – |
| 0.4 µM | 0.57 µM | 0.045 µM | O=c1[nH]c2ccc(CCCCN3CCN(c4cccc(C(F)(F)F)c4)CC3)cc2s1 | – | – |
| 0.2 µM | 0.15 µM | 0.00082 µM | COc1ccccc1N1CCN(CCCCc2ccc3[nH]c(=O)sc3c2)CC1 | – | – |
